System: B16F10 tumor cells
Assay: Anti-tumor efficacy in the B16F10 models
Assay type: in vivo
Details: for TGI / Tumor Volume: BID, 20 days
Experimental: Materials required for the experiment: Antibody: mouse PD-1 antibody, Product specifications: 7.09 mg/mL (50 mg/mL), Lot No.: 695318A1 purchased from BioXcell, storage at 4 °C. Experimental animals: 60 C57BL/6 mice, female, 6˜8 weeks old, 17˜21 g, purchased from Shanghai Lingchang Biotechnology Co. Ltd. Formulation materials: castor oil (Cremophor RH40) , CAS No.: 61788-85-0, Lot No.: 29761847G0, purchased from Shanghai Xietai Chemical Co. Ltd.; β-cyclodextrin (SBE-β-CD), CAS No.: 128446-35-5, Lot No.: 20180110, purchased from Shanghai Shaoyuan Chemical Co. Ltd.; DMEM culture medium, Art. No.: 11995-065, Lot No.:2025378, purchased from Gibco Co. Ltd.; PBS, Art. No.: SH30256.01, Lot No.: AB10141338, purchased from HyClone Co. Ltd.; Fetal bovine serum: Art. No.: 04-002-1A, Lot No.: 1625436, purchased from Boehringer Ingelheim Co. Ltd.; Methyl cellulose (MC), Art. No.: M7027-250G, Lot No.: 079K0054V, purchased from Sigma.
Cell preparation and implantation: The B16-F10 tumor cells (ATCC CRL6475™) were maintained in vitro as a monolayer culture in DMEM medium supplemented with 10% heat inactivated fetal bovine serum at 37° C. in an atmosphere of 5% CO2 in air. The tumor cells were routinely subcultured three times weekly by trypsin-EDTA treatment. The cells growing to a confluency around 70%-80% were harvested and counted for tumor inoculation.
Tumor cell inoculation and group administration: The 100 uL cell suspension containing 1×10^6 B16F10 tumor cells (cells suspended in base DMEM medium) was inoculated into the right subcutaneous of mice. On the second day after inoculation, according to the order of tumor inoculation, stratified randomization was used to group and start the administration on the day of grouping.
Preparation of test substances: Preparation of formulation: 700 mL of sterile water was added into the volumetric flask with magnetic stirring to have a vortex. 100 g of castor oil (Cremophor RH40) was added with a spoon slowly into the vortex and the solution was kept stirring. 200 g of β-cyclodextrin (SBE-β-CD) was added while the solution was kept stirring until the solution was clear, and the total volume was set to 1000 mL, which contained 10% (w/v) Cremophor RH40+20% (w/v) an aqueous solution of SBE-β-CD.
Preparation of compound suspension: 169.16 mg compound was weighed, 14.012 mL 10% (w/v) Cremophor RH40+20% (w/v) SBE-β-CD aqueous solution were added, and the suspension solution with a concentration of 12.0 mg/mL was obtained by fully mixing with magnetic stirring. 6.0 mL of the compound suspension solution with concentration of 12.0 mg/mL was pipetted and 6.0 mL aqueous formulation solution was added. The suspension solution with a concentration of 6.0 mg/mL was obtained by fully mixing with magnetic stirring. 6.0 mL of the compound suspension solution with concentration of 6.0 mg/mL was pipetted and 6.0 mL aqueous formulation solution was added. The suspension solution with a concentration of 3.0 mg/mL was obtained by fully mixing with magnetic stirring. The compound suspension solution was prepared once a day.
Preparation of mPD-1 antibody: 0.564 mL mPD-L1 antibody (7.09 mg/mL) original solution was pipetted and […] PBS solution was added. The solution was fully mixed and the final concentration of 1 mg/mL solution was obtained.
Procedure: The mice in the vehicle group were weighed and recorded in the electronic balance according to their numbers. The mice in the vehicle group were given prepared formulation solution twice a day by oral administration according to their body weight with a capacity of 0.1 mL/10 g. Each mouse spent about 20 seconds and 10 mice in each group shared for about 5 minutes.
The mice in the antibody (10 mg/kg) group were weighed and recorded in the electronic balance according to their numbers. The mice in the antibody group were given prepared antibody solution twice a week by IP administration according to their body weight with a capacity of 0.1 ml/10 g. […]

[1] = B16F10, C57BL/6 mice, 30 mg/kg, PO
[2] = B16F10, C57BL/6 mice, 60 mg/kg, PO
[3] = B16F10, C57BL/6 mice, 120 mg/kg, PO

Cc1c(/C=C/c2cc(CN[C@@](C)(CO)C(=O)O)ccc2C(F)(F)F)cccc1-c1ccccc1 [Compound]
growth of subcutaneous transplanted melanoma cell line in mice (B16F10, C57BL/6 mice): significantly inhibit the growth | TGI [1]: 35.59% | Tumor Volume [1]: 795.99 ± 112.92 mm^3 | TGI [2]: 38.87% | Tumor Volume [2]: 755.48 ± 155.85 mm^3 | TGI [3]: 47.35% | Tumor Volume [3]: 650.67 ± 157.53 mm^3 | tolerability (adverse reactions) (C57BL/6 mice, PO, BID up to 120 mg/kg): well tolerated

Source: patent publication US20220313626A1, “SMALL MOLECULE INHIBITORS FOR TREATING CANCER IN A SUBJECT HAVING TUMORS WITH HIGH INTERSTITIAL PRESSURE” (GUANGZHOU MAXINOVEL PHARMACEUTICALS CO., LTD., priority 2019, published 2022)
